The source of these data is PubChem BioAssay AID1996.

≈ marks a conversion by molar mass, not a printed value.

The conditions of the data set: buffer; pH 7.4; 200.0 µM.
The term solubility (kinetic) denotes solubility judged after dilution from a stock solution rather than from solid. The molecule `CC(C)(C)C(=O)NC(=S)Nc1cccc(C(=O)O)c1` gave a kinetic solubility of over 42.1 µg/mL. For `COc1ccc(CCC(=O)NC2CCCCC2)cc1` the value was over 39.2 µg/mL; for `COC(=O)c1ccc(CN2C(=O)NC(CC(C)C)C2=O)cc1` (centres undefined), over 45.7 µg/mL. For `CC(C)=C(NC(=O)c1ccccc1)C(=O)Nc1ccc(C(=O)O)cc1`, the solubility (kinetic) is over 50.8 µg/mL. On to `O=C1NC(=O)C(Sc2ccccc2[N+](=O)[O-])C(=O)N1`, for which the solubility (kinetic) was over 42.2 µg/mL. `COc1ccccc1CC(=O)NC1CC1` yielded a kinetic solubility of 29.6 µg/mL (≈ 144 µM). For `COc1ccc(-c2cn(-c3ccc(C)cc3C)c(=S)[nH]2)cc1OC` the value was 16.8 µg/mL (≈ 49.3 µM).

In the case of `CCc1sc(C(=O)NCc2ccco2)cc1Br`, the kinetic solubility was determined as 25.9 µg/mL (≈ 82.4 µM). The figure for `Cc1sc2ncnc(SCC(=O)N3CCOCC3)c2c1C` is 39.3 µg/mL (≈ 122 µM); for `Cl.NC(Cc1ccccc1)Cc1ccccc1` it is over 37.2 µg/mL; for `COc1cccc(OCC(=O)O/N=C(\N)c2ccncc2)c1` it is 39.9 µg/mL (≈ 132 µM). For `Cc1ccccc1OCC(=O)Nc1ccc(N2CCN(C)CC2)c(Cl)c1` the value was 12.3 µg/mL (≈ 32.9 µM). `COc1ccc(C(=O)OCC(=O)c2ccc[nH]2)c(OC)c1` showed a solubility (kinetic) of over 43.4 µg/mL.

Take `CC(=O)Nc1ccc(NC(=O)Nc2ccccc2C)cc1`: the kinetic solubility was 1.8 µg/mL (≈ 6.35 µM). For `COc1ccc(CC(=O)Nc2ccncc2Cl)cc1` the value was over 41.5 µg/mL. In turn, `COc1ccc([N+](=O)[O-])cc1NC(=O)CCC(=O)c1cccs1` had a solubility (kinetic) of 3.8 µg/mL (≈ 11.4 µM). `COc1ccc(NC(=S)Nc2cccc3cnccc23)cc1` returned a solubility (kinetic) of 9.9 µg/mL (≈ 32 µM).

`NC(=O)c1cc(-c2csc(NCCc3ccccc3)n2)ccc1O` showed a kinetic solubility of 8 µg/mL (≈ 23.6 µM). The figure for `CC1CCCC(NC(=O)Cn2cc(Br)ccc2=O)C1C` (centres undefined) is over 51.2 µg/mL; for `Cc1cc(C)c(NC(=O)C2CCN(C(=O)c3ccco3)CC2)c(C)c1` it is 44.2 µg/mL (≈ 130 µM); for `COCc1c(CCl)cnc(C)c1O` it is over 30.2 µg/mL. For `OCc1c(Cl)nc2ccccn12` the value was over 27.4 µg/mL; for `O=C1COc2ccccc2N1Cc1c(F)cccc1Cl`, 20 µg/mL (≈ 68.6 µM). The figure for `Cc1nn(CC(=O)N2CCc3ccccc32)c(C)c1S(=O)(=O)NC(C)(C)C` is over 58.6 µg/mL; for `Cc1cc(NC(=O)COC(=O)CC2CCCC2)c([N+](=O)[O-])cc1C` it is 3 µg/mL (≈ 8.97 µM). In the case of `Cc1ccc(N2CCN(C(=O)c3cccs3)CC2)cc1C`, the solubility (kinetic) stood at 43.8 µg/mL (≈ 146 µM). The figure for `O=C(O/N=C1\CCCc2ccccc21)c1cccs1` is under 0.6 µg/mL; for `O=C(O)C1C2C=CC(C2)C1C(=O)Nc1ccc(Cl)c(Cl)c1` (centres undefined) it is 13.4 µg/mL (≈ 41.1 µM). For `COc1ccc2nc(C)cc(Nc3ccc(C)cc3)c2c1.Cl`, the solubility (kinetic) came out at 30.5 µg/mL.

For the molecule `Cc1ccc2[nH]c(=O)cc(C(=O)OCC(=O)c3ccc(F)cc3)c2c1`, the solubility (kinetic) was found to be 1.5 µg/mL (≈ 4.42 µM). The figure for `N#Cc1cccc(C(=O)Nc2cccc(S(=O)(=O)N3CCCC3)c2)c1` is 5.8 µg/mL (≈ 16.3 µM). For `CCOc1ccc(CN(C)CC(=O)NCc2ccccc2)cc1` the value was 34.8 µg/mL (≈ 111 µM).

For `COc1ccc(C)cc1CN1C(=O)c2ccccc2C1=O`, the kinetic solubility worked out at 4 µg/mL (≈ 14.2 µM). For `O=C(NCc1cccnc1)C12CC3CC(CC(Cl)(C3)C1)C2` the value was 43.2 µg/mL (≈ 142 µM); for `CC(=O)c1sc(-c2cccc(Cl)c2)nc1C`, 3.1 µg/mL (≈ 12.3 µM). The figure for `CC(=O)N[C@@H](Cc1c[nH]c2ccccc12)C(=O)NC1CC1` is over 42.8 µg/mL; for `CCCCSc1nc2sc3c(c2c(=O)[nH]1)CC(C)(CC)OC3` (centres undefined) it is 0.5 µg/mL (≈ 1.48 µM); for `Cc1cc(Cl)ccc1NC(=O)Cn1cncn1` it is over 37.6 µg/mL. The molecule `Cc1cc(C(=O)OCC(=O)Nc2ccccc2)c(C)o1` registered a kinetic solubility of 20 µg/mL (≈ 73.2 µM). Molecule `COC(=O)N1CCN(c2ccc(C)cc2)C(C)C1` (centres undefined) showed a solubility (kinetic) of over 37.2 µg/mL.

As for `Cc1ccc(C(O)P(=O)(OC(C)C)c2ccc(N(C)C)cc2)cc1` (centres undefined), the kinetic solubility is over 52.1 µg/mL. With `Cn1c(SCc2ccc([N+](=O)[O-])cc2)nc2c(c1=O)SCC2`, the solubility (kinetic) was found to be 1.6 µg/mL (≈ 4.77 µM). For `CCOc1nc(CC(C)C)c2c(c1C#N)CC(C)(C)OC2` the value was 2.4 µg/mL (≈ 8.32 µM); for `Cc1cccc(C(CC(=O)N2CCCCC2)c2ccccc2)c1O` (centres undefined), 0.8 µg/mL (≈ 2.47 µM). For `O=[N+]([O-])c1cccc(-c2ccc(CN3CCCCC3)o2)c1` the value was 30.5 µg/mL (≈ 107 µM); for `Cc1cc(C)c(S(=O)(=O)c2ccc(Cl)cc2)c(=O)[nH]1`, 19.8 µg/mL (≈ 66.5 µM); for `CC(C)(C)OC(=O)C(C)(C)Sc1nnc(N)s1`, over 41.3 µg/mL.

The molecule `O=C(O)Cn1c(=O)c2cccn2c2ccccc21` displayed a kinetic solubility of over 36.3 µg/mL. In the case of `COc1ccc2oc(=O)cc(CN3CCOCC3)c2c1`, the kinetic solubility was 39.5 µg/mL (≈ 143 µM). The figure for `Cc1ccc2cc(CNCCc3ccccc3C)c(=O)[nH]c2c1` is 40.7 µg/mL (≈ 133 µM). With `Cc1ccc(NC(=S)Nc2ccc3[nH]c(=O)[nH]c3c2)cc1C`, the solubility (kinetic) turned out to be 17.9 µg/mL (≈ 57.3 µM). On to `COc1ccc(C(=O)CC(=O)C(=O)Nc2ccccc2)cc1`, for which the solubility (kinetic) came out at 34.6 µg/mL (≈ 116 µM). For `COc1ccc(CNC(=O)CN2CCN(S(=O)(=O)c3c(C)c(C)cc(C)c3C)CC2)cc1OC` the value was 3.5 µg/mL (≈ 7.15 µM); for `N#Cc1c(SCC(=O)O)nc(N2CCOCC2)c2c1CCCC2`, over 50 µg/mL.

Molecule `O=C(Cn1c(=O)oc2ccccc21)N1CCCC1` yielded a solubility (kinetic) of over 36.9 µg/mL. Molecule `CC1CCCCN1C(=O)c1cc(-c2ccc3c(c2)OCO3)on1` (centres undefined) gave a solubility (kinetic) of 39.9 µg/mL (≈ 127 µM). The figure for `COc1ccc(C)cc1S(=O)(=O)n1cnc2ccccc21` is 6.8 µg/mL (≈ 22.5 µM); for `CN(C)CCCNc1nc(N)c([N+](=O)[O-])c(NCCO)n1` it is 39 µg/mL (≈ 130 µM); for `O=[N+]([O-])c1cccc(CSc2cccc[n+]2[O-])c1` it is over 39.3 µg/mL. The figure for `CC(=O)c1ccc(Oc2ncnc(N)c2[N+](=O)[O-])cc1` is 2.3 µg/mL (≈ 8.39 µM); for `COC(=O)c1ccccc1NC(=O)CN1CCC(C)CC1` it is 30.8 µg/mL (≈ 106 µM).

With `COc1ccc(C/C(N)=N/OC(=O)c2cccs2)cc1`, the solubility (kinetic) came to 7.5 µg/mL (≈ 25.8 µM). Take `COc1ccccc1/C=[N+](\[O-])C1SC(=S)N(C)C1(C)C` (centres undefined): the kinetic solubility is over 46.6 µg/mL. The figure for `O=C(c1ccc2c(c1)OCO2)N1CCC(Cc2ccccc2)CC1` is 41.6 µg/mL (≈ 129 µM). For `COc1ccccc1/C=N/OC(=O)c1ccc(F)cc1` the value was 0.7 µg/mL (≈ 2.56 µM); for `O=C1CN(C(=O)c2ccc(Cl)c([N+](=O)[O-])c2)c2ccccc2N1`, over 49.8 µg/mL. For `Cc1ccc(NS(=O)(=O)c2ccc3[nH]c(=O)[nH]c3c2)cc1` the value was 5.4 µg/mL (≈ 17.8 µM). `NC(=Nc1ccccc1)Nc1ccccc1` had a solubility (kinetic) of 29.5 µg/mL (≈ 140 µM). For `COC(=O)c1ccc(NC(=S)NCCCN2CCCC2=O)cc1` the value was over 50.3 µg/mL. The figure for `O=C(CSc1cccc[n+]1[O-])N1CCCCCC1` is 27 µg/mL (≈ 101 µM); for `O=C(Nc1cccc(O)c1)c1cccc(S(=O)(=O)Nc2cccc(O)c2)c1` it is over 57.7 µg/mL. The figure for `Cc1cccc(C(=O)Nc2ccc3c(c2)C(=O)N(CC(C)C)C3=O)c1` is under 0.4 µg/mL. Consider `COC(=O)c1c(NC(=O)C(C)(C)C)csc1C`, for which the solubility (kinetic) came out at 18.1 µg/mL (≈ 70.9 µM).

`CC[N+](C)(C)c1cccc(O)c1.[Cl-]` showed a kinetic solubility of over 30.3 µg/mL. `COc1ccc(C2=NOC(C(=O)NCc3cccnc3)C2)cc1OC` (centres undefined) gave a kinetic solubility of over 51.2 µg/mL. The figure for `CSc1sc(C(=O)N2CCCCC2)c(-c2cccs2)c1C#N` is 31.6 µg/mL (≈ 90.7 µM); for `O=c1[nH]c2ccc(NC(=S)NCc3ccccc3)cc2[nH]1` it is 7.6 µg/mL (≈ 25.5 µM); for `O=C(Nc1ccc(OC(F)(F)F)cc1)c1cnccn1` it is 11.3 µg/mL (≈ 39.9 µM). As for `CCOC(=O)C1=C(CC)Nc2ccccc2N=C1N`, the solubility (kinetic) was determined as 14.3 µg/mL (≈ 55.1 µM). For `CCc1ccc(N2CC(C(=O)NC3CC3)CC2=O)cc1` (centres undefined) the value was over 40.9 µg/mL; for `CCNC(=O)COC(=O)c1cc(C)nc2ccccc12`, over 40.8 µg/mL.

`O=C(NCc1ccc(F)cc1)C(Cc1ccccc1)n1cccc1` (centres undefined): the kinetic solubility came out at 32.2 µg/mL (≈ 99.9 µM). For `O=C(O)CNC(=S)N(Cc1ccccc1)Cc1cccs1` the value was over 48.1 µg/mL. The figure for `CCC1CN(C(=O)NCc2ccc(F)cc2)c2ccccc2O1` (centres undefined) is 37.4 µg/mL (≈ 119 µM); for `Fc1ccc2nc(Nc3ccccc3)sc2c1` it is 0.5 µg/mL (≈ 2.05 µM); for `O=C(Nc1ccccc1Cl)c1ccc2nccnc2c1` it is over 42.6 µg/mL. `COC(=O)c1ccc(C2NC(=O)c3c(sc(C)c3C)N2)cc1` (centres undefined) registered a kinetic solubility of 14.5 µg/mL (≈ 45.8 µM).

For `Nc1cc(Cl)ccc1C(=O)OCC(=O)NCc1cccs1`, the solubility (kinetic) amounted to 7.7 µg/mL (≈ 23.7 µM).

On to `COc1ccc(Cl)cc1NC(=S)NCCc1ccc(F)cc1`, for which the kinetic solubility was 13.7 µg/mL (≈ 40.4 µM).

For `CC(C)NC(=O)COC(=O)c1ccccc1C(=O)c1ccccc1`, the solubility (kinetic) is over 48.8 µg/mL.

Regarding `O=[N+]([O-])c1ccc(N2CCSCC2)cc1O`, the solubility (kinetic) was determined as 4.1 µg/mL (≈ 17.1 µM).

Regarding `COc1cccc(OC)c1C(=O)NC(=O)Oc1c(F)cccc1F`, the kinetic solubility was 43.8 µg/mL (≈ 130 µM). The figure for `Cn1c(=O)c2ccccc2n(CC(=O)Nc2ccc3c(c2)OCCO3)c1=O` is 4.6 µg/mL (≈ 12.5 µM); for `CCCC(=O)Oc1ccc(C2NC(=O)c3ccccc3O2)cc1` (centres undefined) it is under 0.7 µg/mL. With `CC1CN(C(=O)COC(=O)c2ccc3ncsc3c2)CC(C)O1` (centres undefined), the solubility (kinetic) was over 50.2 µg/mL. The figure for `COc1cc(NC(=O)c2ccc(OCc3c(C)noc3C)c(OC)c2)cc(OC)c1` is 5.4 µg/mL (≈ 13.1 µM); for `C/C(=N\O)c1cccc(Br)c1` it is 18.1 µg/mL (≈ 84.6 µM). For `NC(=O)C1CCN(C(=O)/C=C/c2cccc(Br)c2)CC1` the value was 46.9 µg/mL (≈ 139 µM). In the case of `O=C(O)c1cn(CCOc2ccccc2Cl)c2ccccc12`, the kinetic solubility is over 47.4 µg/mL.

On to `CC(=O)c1ccc(S(=O)(=O)Nc2ccc(Cl)c(S(=O)(=O)N3CCCC3)c2)cc1`, for which the solubility (kinetic) is over 66.4 µg/mL.

In turn, `COc1ccc(C(=O)CSc2[nH]c(=O)cc(C(F)(F)F)c2C#N)cc1` showed a kinetic solubility of over 55.2 µg/mL. The figure for `N#Cc1c(Nc2ccccc2C(F)(F)F)s[nH]c1=O` is over 42.8 µg/mL; for `O=C(c1ccc(Cl)nc1)N1CCN(C/C=C/c2ccccc2)CC1` it is over 51.3 µg/mL; for `O=C(O)CCN1c2cccc3cccc(c23)S1(=O)=O` it is over 41.6 µg/mL.
